Measured values from patent US6632418B2, “Radioligands and their use for identifying potassium channel modulators” (Abbott Laboratories, priority 2001, dated 2003).
Like-named read-outs stand apart in the source and are kept apart here. One block for each compound: values may come before it.

Assays:
[1] = molecular target: T1, ATP-sensitive potassium channels (Cavia porcellus, UniProt A0A286XYR9); test: Radioligand (Example 1) binding assay, guinea-pig cardiac ventricle membranes; conditions: for effect on specific binding of Example 1 (in words): guinea-pig cardiac membranes
Description: Membrane Preparation: Guinea-pig cardiac ventricles and bladder membranes were prepared by standard procedures, Gopalakrishnan, M., Johnson, D. E., Janis, R. A. & Triggle, D. J. (1991) Journal of Pharmacology and Experimental Therapeutics, 257, 1162-71; Russ, U., Metzger, F., Kickenweiz, E., Hambrock, A., Krippeit-Drews, P. & Quast, U. (1997) Br. J. Pharmacol., 122, 1119-1126. Briefly, ventricles and bladders were quickly removed from male guinea-pigs (Charles River) and placed in ice-cold binding buffer. Tissues were cleansed of adherent connective tissue, chopped into small pieces and disrupted using Tekmar polytron in about 15-vol./g tissue weight. Homogenates were centrifuged at 45,000×g and the membrane pellets were resuspended in the assay buffer. Membrane preparations from other tissues, cells, both clonal and transfected with KATP subunits, may also be used. Clonal cell lines or transfected cell lines can be cultured by standard tissue culture techniques. When cells were confluent, membrane preparations were made by removal of media followed by scraping the monolayer in ice-cold Tris HCl buffer (pH 7.2). The suspension was then centrifuged at 45,000×g for 20 minutes and the pellet was resuspended in the assay buffer for use in radioligand assays.
Binding Assay: A radioligand of formula (I) such as 9-(4-fluoro-3-[I^125]iodophenyl)-2,3,5,9-tetrahydro-4H-pyrano[3,4-b]thieno[2,3-e]pyridin-8(7H)-one 1,1-dioxide (Example 1) (specific activity, 2000 Ci/mmol) was stored in ethanol. Prior to use, the desired amount of Example 1 was dried under a gentle stream of nitrogen gas and reconstituted in the assay buffer (usually prepared as a 10×stock). Guinea-pig ventricle membranes were incubated in a total 0.25 mL volume of HEPES buffer (composition, NaCl, 139 mM; KCl, 5 mM, MgCl2, 25 mM; CaCl2, 1.25 mM; pH 7.4 at 25° C.) containing an ATP regenerating system (creatine phosphate (40 mM), creatine phosphokinase (100 enzyme units) and varying concentrations of Na2ATP (0.01-3 mM) with Example 1 and varying concentrations of test compounds at 37° C. for 90 minutes. These conditions have been previously employed by Gopalakrishnan et al., 1991 (see above), hereby incorporated by reference, wherein the levels of ATP were consistently maintained since free ADP is converted back to ATP by creatine phosphate and creatine is regenerated to creatine phosphate by the enzyme creatine phosphokinase.
Saturation binding of Example 1 was performed with varying concentrations of Example 1. For inhibition assays, samples were incubated in a final volume of 0.25 mL of buffer containing 1-2 nM of Example 1 with varying concentrations of the test compounds. Incubations were terminated by rapid vacuum filtration through GF/B filters followed by rinsing twice with ice-cold 50 mM Tris HCl (pH 7.4). Radioactivity bound to the filters was assessed by gamma counting. Specific radioligand binding is defined by the inclusion of 10 μM of unlabeled Example 1 and was obtained by subtracting the nonspecific binding from the total binding to membranes and filters.
Membrane protein concentration was determined by the method of Lowry et al Gopalakrishnan, M., Triggle, D. J., Rutledge, A., Kwon, Y. W., Bauer, J. A. & Fung, H. L. (1991) Am. J. Physiol., 261, H1979-H1987; Janis, R. A., Maurer, S. C., Sarmiento, J. G., Bolger, G. T. & Triggle, D. J. (1982). Eur. J. Pharmacol., 82, 191-4.
The equilibrium dissociation constant (KD) and maximal density of binding sites (Bmax) of Example 1 was determined by non-linear regression of the saturation binding isotherm. The Ki values were calculated from the concentration inhibition curve by the method of Cheng and Prusoff (1973) Biochem.Pharmacol.,22, 3099-3108. Data is presented as means±S.E.M.

[2] = molecular target: ATP-sensitive potassium channel; test: Comparison of the profile of the novel radioligand with [^3H]P1075 in membrane preparations; type: binding; conditions: radioligand comparison table; read-out: Affinity
[3] = molecular target: T1, ATP-sensitive potassium channels; test: Radioligand (Example 1) binding assay, guinea-pig cardiac ventricle membranes; conditions: without ATP regenerating system
[4] = quantity not given, Ki per method, mean±S.E.M., read-out: displacement of specific Example 1 binding by KATP channel blockers
[5] = cardiac membranes, in the presence of the ATP regenerating system, Cheng-Prusoff, read-out: Ki value for displacement of specific Example 1 binding

T1 sequence (A0A286XYR9 1-1546): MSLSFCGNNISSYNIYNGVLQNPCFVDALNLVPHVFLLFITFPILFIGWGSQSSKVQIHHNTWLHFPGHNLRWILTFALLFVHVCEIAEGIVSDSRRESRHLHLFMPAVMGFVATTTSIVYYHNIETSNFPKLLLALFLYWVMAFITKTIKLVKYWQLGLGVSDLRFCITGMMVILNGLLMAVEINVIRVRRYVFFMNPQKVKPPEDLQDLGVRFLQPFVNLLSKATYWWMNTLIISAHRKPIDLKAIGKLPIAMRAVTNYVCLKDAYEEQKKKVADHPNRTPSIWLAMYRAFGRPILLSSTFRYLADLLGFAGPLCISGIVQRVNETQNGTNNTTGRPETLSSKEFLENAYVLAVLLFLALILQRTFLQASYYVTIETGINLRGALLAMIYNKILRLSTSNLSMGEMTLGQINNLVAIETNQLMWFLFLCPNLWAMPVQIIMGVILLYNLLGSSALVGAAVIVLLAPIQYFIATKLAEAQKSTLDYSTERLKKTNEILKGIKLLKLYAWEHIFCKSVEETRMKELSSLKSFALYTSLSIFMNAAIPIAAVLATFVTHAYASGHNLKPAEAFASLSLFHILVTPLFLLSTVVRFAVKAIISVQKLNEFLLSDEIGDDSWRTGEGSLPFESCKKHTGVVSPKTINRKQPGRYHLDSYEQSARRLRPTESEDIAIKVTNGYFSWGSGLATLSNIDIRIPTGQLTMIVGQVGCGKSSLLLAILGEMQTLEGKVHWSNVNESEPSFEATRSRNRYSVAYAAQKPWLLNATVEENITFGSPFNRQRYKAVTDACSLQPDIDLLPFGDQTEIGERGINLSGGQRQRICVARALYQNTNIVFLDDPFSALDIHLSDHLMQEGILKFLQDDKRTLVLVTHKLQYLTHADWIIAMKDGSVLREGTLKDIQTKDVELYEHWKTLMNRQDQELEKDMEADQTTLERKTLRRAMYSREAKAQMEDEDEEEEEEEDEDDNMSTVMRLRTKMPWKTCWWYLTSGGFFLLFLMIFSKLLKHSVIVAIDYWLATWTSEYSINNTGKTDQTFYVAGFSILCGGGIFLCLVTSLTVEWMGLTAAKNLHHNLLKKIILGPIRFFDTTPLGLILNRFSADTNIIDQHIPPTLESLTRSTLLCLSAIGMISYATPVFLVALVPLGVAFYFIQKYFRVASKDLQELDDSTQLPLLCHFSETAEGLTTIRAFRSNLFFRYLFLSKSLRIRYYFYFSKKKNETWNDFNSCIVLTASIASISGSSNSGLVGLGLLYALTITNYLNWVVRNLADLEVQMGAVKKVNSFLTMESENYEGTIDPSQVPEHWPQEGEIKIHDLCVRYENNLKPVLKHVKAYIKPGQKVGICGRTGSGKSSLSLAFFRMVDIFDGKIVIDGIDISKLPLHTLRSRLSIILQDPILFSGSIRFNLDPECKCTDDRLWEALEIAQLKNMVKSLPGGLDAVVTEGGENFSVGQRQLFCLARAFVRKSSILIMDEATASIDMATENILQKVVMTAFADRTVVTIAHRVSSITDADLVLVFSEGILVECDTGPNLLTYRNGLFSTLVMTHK

Ki ([1]; cardiac membranes, rank order potency, read-out: Ki value for displacement of Example 1 binding): 44800 nM
SMILES: CC1=NS(=O)(=O)c2cc(Cl)ccc2N1 [diazoxide]

effect on specific binding of Example 1 (in words) [1]: displaced
SMILES: CC1(C)Oc2ccc(C#N)cc2C(N2CCCC2=O)C1O (stereo not drawn) [cromakalim]

effect on specific binding of Example 1 (in words) [1]: unaffected
SMILES: COC(=O)C1=C(C)NC(C)=C(C(=O)OC(C)C)C1c1cccc2nonc12 (stereo not drawn) [isradipine]

effect on specific binding of Example 1 (in words) [1]: displaced
SMILES: CCOc1ccccc1N/C(=C\[N+](=O)[O-])NC(C)C(C)(C)C (stereo not drawn) [Bay X 9228]

effect on specific binding of Example 1 (in words) [1]: displaced
SMILES: O=C1CCCC2=C1[C@H](c1ccc(F)c(Br)c1)C1=C(CCS1(=O)=O)N2 [Example A-278637]

Ki [1, 4]: 4500 ± 400 nM
SMILES: Cc1cnc(C(=O)NCCc2ccc(S(=O)(=O)NC(=O)NC3CCCCC3)cc2)cn1 [glipizide]

effect on specific binding of Example 1 (in words) [1]: displaced
SMILES: CC(N/C(=N\C#N)Nc1ccncc1)C(C)(C)C (stereo not drawn) [pinacidil]

Continued, compound first:

SMILES: COc1ccc(Cl)cc1C(=O)NCCc1ccc(S(=O)(=O)NC(=O)NC2CCCCC2)cc1 [glyburide]
Ki [1, 4]: 47.6 ± 9.4 nM

SMILES: O=C1COCC2=C1C(c1ccc(F)c(I)c1)C1=C(CCS1(=O)=O)N2 (stereo not drawn) [Example 1, 9-(4-fluoro-3-[I^125]iodophenyl)-2,3,5,9-tetrahydro-4H-pyrano[3,4-b]thieno[2,3-e]pyridin-8(7H)-one 1,1-dioxide]
Ki [1, 5]: 5.8 nM
Kd ([1]; guinea-pig cardiac ventricle membranes, single set of saturable sites, n=3, mean±S.E.M., read-out: KD value (equilibrium dissociation constant), saturation binding): 5.83 ± 0.77 nM
Kd [2]: 5 nM

SMILES: O=C1COCC2=C1C(c1ccc(F)c([125I])c1)C1=C(CCS1(=O)=O)N2 (stereo not drawn) [Example 1, 9-(4-fluoro-3-[I^125]iodophenyl)-2,3,5,9-tetrahydro-4H-pyrano[3,4-b]thieno[2,3-e]pyridin-8(7H)-one 1,1-dioxide]
maximum binding capacity (Bmax) ([1]; guinea-pig cardiac ventricle membranes, saturation binding, n=3): 107.7±12.7 femtomol/mg protein
specific binding in the presence of just ATP alone [3]: no specific binding was detected

SMILES: CCC(C)(C)N=C(NC#N)Nc1cccnc1 [Example P1075]
effect on specific binding of Example 1 (in words) [1]: displaced

SMILES: O=C1COCC2=C1C(c1ccc(F)c(I)c1)C1=C(CCS1(=O)=O)N2 (stereo not drawn) [Unlabeled Example 1, 9-(4-fluoro-3-iodophenyl)-2,3,5,9-tetrahydro-4H-pyrano[3,4-b]thieno[2,3-e]pyridin-8(7H)-one 1,1-dioxide]
Ki [1, 5]: 5.8 nM
